According to ChEMBL document CHEMBL1201862, “PubChem BioAssay data set” (2004):
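These data come from cells grown in 96-well plates and exposed to compound for 48 hours at five concentrations. GI50: concentration for 50% inhibition of growth.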 Active and inactive are the calls of the source. Rule as the data show it: active = GI50 up to about 1.1 µM and inactive = higher.

How the values were obtained:
Test in all cases: NCI-60 cell line screen, 48 h
[1] = tested on: UACC-257
[2] = tested on: HL-60
[3] = tested on: SR
[4] = tested on: HT-29
[5] = tested on: IGROV-1
[6] = tested on: SN12C
[7] = tested on: OVCAR-5
[8] = tested on: HCT-15
[9] = tested on: NCI-H23
[10] = tested on: LOX IMVI
[11] = tested on: UACC-62
[12] = tested on: HOP-62
[13] = tested on: CAKI-1
[14] = tested on: Malme-3M
[15] = tested on: NCI-H522
[16] = tested on: SF-295
[17] = tested on: NCI-H460
[18] = tested on: RPMI-8226
[19] = tested on: A498
[20] = tested on: SF-539

Row | SMILES | GI50 [1] | GI50 [2] | GI50 [3] | GI50 [4] | GI50 [5] | GI50 [6] | GI50 [7] | GI50 [8] [µM] | GI50 [9] | GI50 [10] | GI50 [11] | GI50 [12] | GI50 [13] | GI50 [14] | GI50 [15] | GI50 [16] | GI50 [17] | GI50 [18] | GI50 [19] | GI50 [20]
1 | O=C1C(Cl)C(c2ccccc2Cl)N1n1cnc2ccccc2c1=O (stereo not given) | 37.2 µM (inactive) | 8.69 µM (inactive) | 5.13 µM (inactive) | > 100 µM (inactive) | 80.4 µM (inactive) | > 100 µM (inactive) | > 100 µM (inactive) | 72.6 | 49.1 µM (inactive) | 19.6 µM (inactive) | 21.6 µM (inactive) | 16.3 µM (inactive) | 47.6 µM (inactive) | > 100 µM (inactive) | 25.8 µM (inactive) | 29.4 µM (inactive) | > 100 µM (inactive) | 35 µM (inactive) | – | –
2 | O=C(Cc1nc2ccccc2s1)C(=O)Nc1cccc(C(F)(F)F)c1 | > 100 µM (inactive) | > 100 µM (inactive) | > 100 µM (inactive) | > 100 µM (inactive) | > 100 µM (inactive) | > 100 µM (inactive) | – | > 100 | > 100 µM (inactive) | – | > 100 µM (inactive) | > 100 µM (inactive) | > 100 µM (inactive) | > 100 µM (inactive) | > 100 µM (inactive) | > 100 µM (inactive) | > 100 µM (inactive) | – | > 100 µM (inactive) | > 100 µM (inactive)
3 | Cc1cc(C)n(-c2nc3ccccc3c(=O)n2-c2ccccc2)n1 | > 100 µM (inactive) | > 100 µM (inactive) | > 100 µM (inactive) | > 100 µM (inactive) | > 100 µM (inactive) | > 100 µM (inactive) | > 100 µM (inactive) | > 100 | > 100 µM (inactive) | > 100 µM (inactive) | – | > 100 µM (inactive) | > 100 µM (inactive) | > 100 µM (inactive) | > 100 µM (inactive) | > 100 µM (inactive) | > 100 µM (inactive) | – | > 100 µM (inactive) | > 100 µM (inactive)
4 | O=C(c1ccccc1)c1c(CC(O)c2ccccc2)n(C(=O)c2ccccc2)c2ccccc12 (stereo not given) | 35.3 µM (inactive) | 31.3 µM (inactive) | 16.9 µM (inactive) | 63.8 µM (inactive) | 42.6 µM (inactive) | – | > 100 µM (inactive) | 32.7 | 19 µM (inactive) | – | 46.3 µM (inactive) | 24.2 µM (inactive) | 55.7 µM (inactive) | 56.2 µM (inactive) | 17.5 µM (inactive) | 28.8 µM (inactive) | 30.1 µM (inactive) | 25.2 µM (inactive) | – | 34.2 µM (inactive)
5 | O=S(=O)(N/N=C1\CC2CCC1C2)c1ccccc1 (stereo not given) | > 100 µM (inactive) | > 100 µM (inactive) | > 100 µM (inactive) | > 100 µM (inactive) | > 100 µM (inactive) | > 100 µM (inactive) | > 100 µM (inactive) | > 100 | > 100 µM (inactive) | > 100 µM (inactive) | > 100 µM (inactive) | > 100 µM (inactive) | > 100 µM (inactive) | > 100 µM (inactive) | > 100 µM (inactive) | > 100 µM (inactive) | > 100 µM (inactive) | > 100 µM (inactive) | – | –
6 | Oc1cc(-c2ccccn2)nc2cc(F)ccc12 | > 100 µM (inactive) | > 100 µM (inactive) | 18.9 µM (inactive) | 49.1 µM (inactive) | > 100 µM (inactive) | > 100 µM (inactive) | > 100 µM (inactive) | – | > 100 µM (inactive) | 71 µM (inactive) | 55.8 µM (inactive) | > 100 µM (inactive) | – | 90.2 µM (inactive) | 25.8 µM (inactive) | > 100 µM (inactive) | 38.7 µM (inactive) | 92.3 µM (inactive) | – | 58.6 µM (inactive)
